According to patent US20140018288A1, “X-DING-CD4 Peptide” (priority 2012, published 2014):

B1: X-DING-CD4: native form of X-DING-CD4 protein purified from the extracellular compartment of HIV-1 resistant T-cells, about 40 kDa (protein, listed as Homo sapiens)
chain: MADINGGGATLPQPLYQTSGVLTAGFAPYIGVGSGKGKLAFLNNDYSQFGTGTKNVHWAGSDSKLTSTELSTYASTKQAAWGKLIQVPSVATSVAIPFNKAGSNAVDLSVDQLCGVFSGRITTWNQLPATGRTGNIVVVYRNEASGTTELFTRFLTAKCVNESKKFVVTTNFADSFGVPAGAVPAVTSQGVMTKLNAGDGRITYMSPDYAAPTLAGLDDATKVAKVAGVSPAPDNVSAAIAAVPVPAAANVALQNAWVPVFAAAADANDPSVVPYPSTGFPILGFTNLIFSQ

Tests used:
[1] = test system: cellular uptake of X-DING-CD4 protein; assay: Cellular uptake of X-DING-CD4 protein tested by RSA in 1G5 cells treated with uptake inhibitors; assay type: cell-based
Method: Cellular uptake of X-DING-CD4 protein was tested by RSA in 1G5 cells treated with chemicals affecting: (i) clatrin mediated endocytosis—[…] (CPZ); (ii) endocytosis—cytochalasin D (CCD) and chloroquine (CQ) or (iii) macropinocytosis—dimethyl amiloride (DMA). Untreated group referred to the experimental system where X-DING-CD4 mediated inhibition of transcription was measured without cellular exposure to chemicals.

HIV-1 LTR promoter = assay: Rapid Suppression Assay (RSA), PMA-induced HIV-1 LTR-driven luciferase in 1G5 cells; assay type: cell-based; conditions: for IC50: 1G5 cells, PMA 5 ng/ml, read-out: IC50, HIV-1 LTR promoter inhibition; for IC50, HIV-1 LTR promoter inhibition, mass concentration: Table 1
From the text: We applied the cell based Rapid Suppression Assay (RSA) for testing X-DING-CD4-induced inhibition of HIV-1 LTR promoter (Lesner et al., 2004; Lesner et al., 2005). Briefly, 1 G5 cells (obtained through the NIH AIDS Research and Reagent Program, Division of AIDS, NIAID, NIH) that are stably transfected with an inducible luciferase gene driven by HIV-1 LTR (Aguilar-Cordova et al., 1994) were washed in PBS, resuspended in hybridoma medium to concentration of 5×10^6cells/ml. For purpose of generating control titration curves, 100 μl aliquots of 1G5 cells were mixed with 100 μl cell culture medium either supplemented with various amount of rX-DING-CD4^pep (SEQ ID No: 1) or no rX-DING-CD4^pep, and incubated for three hours at 37° C. Subsequently, all cells were induced with phorbol 12-myristate 13-acetate (PMA) at a concentration of 5 ng/ml. Two control tubes containing 1G5 cells without rX-DING-CD4^pep treatment were resuspended in hybridoma medium with or without PMA. Three hours later cells were collected by centrifugation and lysed in the same tubes using Reporter Lysis buffer (Promega). The expression levels of luciferase protein in the lysates were determined according to the manufacturer's protocol. The X-DING-CD4^pep inhibition values were established based on the formula: [(LUC1-LUC0)×100/Z]−100; where LUC1 is the value obtained from cells induced by PMA and treated with a specific dilution of X-DING-CD4^pep; and LUC0 is the basal value obtained from the uninduced and untreated cells; Z is the absolute luciferase induction by PMA calculated as Z=LUCmax-LUCO3 where LUCmax is the value of 100% luciferase expression in PMA induced X-DING-CD4^pep untreated cells.
One aspect of the present invention is related to X-DING-CD4 peptide derivatives. Here we obtained 15 derivatives SED ID NOS: 1-15 by recombination or in vitro synthesis. We tested the biological activity of some these derivatives by rapid suppression assay (RSA). In XD-4M, the third amino acid glycine in the native X-DING-CD4 peptide was substituted with the polar amino acid glutamine. In XD-7, the two amino acids, cysteine and valine, replaced the three amino acids, glycine, serine and aspartic acid, in the native X-DING-CD4 peptide. In XD-12 and XD-12sh, the 69th amino acid glutamic acid in the native X-DING-CD4 peptide was methylated. In XD-9, the 69th amino acid glutamic acid in the native X-DING-CD4 peptide was substituted with the amino acid glutamine. The RSA procedure was similar to that described in Example 2. The inhibitory values are plotted in FIG. 5.
We performed the rapid suppression assay (RSA) which tests directly the inhibition of HIV-1 transcription (similar to the procedure described in Example 2), the MAGI assay which tests the inhibition of HIV-1 replication in a single cycle infection (similar to the procedure described in Example 2), and the HIV-1 infection inhibition assay in human PBLs.

NL4-3 HIV-1 isolate [2] = assay: MAGI assay of HIV-1 replication in MAGI-CCR-5 cells; assay type: cell-based; conditions: DING family proteins, FIG. 16B
Method: The antiviral activity of rX-DING-CD4^pep was tested by MAGI assay. […] Subsequently, cells were exposed to rX-DING-CD4^pep treatment in the presence of DMEM supplemented with 5% fetal bovine serum, antibiotics, glutamate and […] DEAE dextran. […] Replication of virus was evaluated forty eight hours later after fixation of cells with 1% formaldehyde and 0.2% glutaraldehyde in PBS. Expression of β-galactosidase was visualized by 50 min exposure to X-GAL (5-bromo-4-chloro-3-indolyl-β-D-galactopyranoside), 0.4 mg/ml 2 mM MgCl2, 4 mM potassium ferricyanide at 37° C. After enumeration of the infected (blue) cells, all cells were lysed and subjected to the protein assay (Bio-Rad). All data were adjusted by total protein concentration and anti-viral activity was calculated as percent inhibition. The infected untreated and uninfected cells served as (+) and (−) controls to calculate 100% virus infectivity. The inhibition values for HIV-1 replication were calculated based on the formula [(R1−R0)×100/Z]-100; where R1 is the value obtained from cells infected by HIV-1 and treated with specific dilution of X-DING-CD4^pep and R^0 is the basal value obtained from the uninfected and untreated cells; Z is the absolute HIV-1 replication value calculated as Z═Rmax−R0, where Rmax is the value representing 100% of HIV-1 replication in X-DING-CD4^pep untreated cells.

NL4-3 HIV-1 isolate [3] = assay: HIV-1 infection inhibition assay in human PBLs, intracellular p24 core antigen ELISA; assay type: cell-based; conditions: 1 μg/ml protein, seven days after infection
Method: In addition, we measured the inhibitory activities of these four proteins in HIV-1-infected peripheral blood lymphocytes (PBLs). The cells are treated separately with the proteins and the replication of virus was measured five and seven days later by assessing the intracellular levels of p24 core protein. PBLs were obtained by elutriation from the whole blood of healthy, HIV-1 negative volunteers. Before the experiment, cells were stimulated for 2 days in Dulbecco's modified Eagle medium (DMEM) supplemented with 10% fetal bovine serum (FBS), phytohemaglutinin (PHA, 5 μg/ml; Sigma), interleukin 2 (10 U/ml; R&D Systems), antibiotics and glutamate. Subsequently, cells were cultured without PHA. Briefly, 3×10^6 PBLs/well in a 24-well plate (Costar Scientific) were cultured in 1 ml RPMI medium supplemented with antibiotics, glutamate and 1 μg/ml of each protein, respectively. Six hours after the initial exposure to the protein treatments, the culture medium was supplemented with 3%/Vol FBS. […] Replication of virus was evaluated at five and seven days after infection by Elisa assay of the intracellular HIV-1 p24 core antigen (Perkin Elmer). The viability of cells was assessed by the dye exclusion method (Strober, 2001) at 1, 2, 3, 5 and 7 days after protein treatments.

X-DING-CD4 mRNA = assay: Induction of X-DING-CD4 mRNA expression in 1G5 cells (qRT-PCR); assay type: cell-based; conditions: 6 hours, 200 ng/ml
Method: The sX-DING-CD4 may be released from the macropinosome to endoplasmic reticulum (ER) and cause induction of IFNα, which in turn induces the expression of X-DING-CD4 mRNA and endogenous X-DING-CD4 protein (step 2). The induction of X-DING-CD4 mRNA by sX-DING-CD4 was tested in 1G5 cells. Briefly, three groups of 1G5 cells were treated for 6 hours with NL4-3 HIV-1 at MOI of 0.1, 200 ng/ml native X-DING-CD4 protein, and 1-126 rX-DING-CD4 peptide (i.e., rX-DING-CD4^pep), respectively. […] The eX-DING-CD4, derived from the newly synthesized X-DING-CD4, binds CN and is transported into the nucleus where it blocks LTR transcription (steps 2-7).
Two peptide fragments from the N-terminal region of X-DING-CD4 were synthesized and their activities in inducing IFN-α and X-DING-CD4 mRNA expressions were determined by qRT-PCR. The concentration of proteins used in the assays was 200 ng/ml except for the combination of XD-1 and XD-4 where we used 100 ng/ml of each peptide. The 1-126 rX-DING-CD4 and peptide C3 p16 served as positive and negative controls, respectively. The C3 Peptide P16 was derived from the C3d component of serum complement. C3 Peptide P16 regulates B cells, but not T cells, through interacting with the gp140 C3d receptor (CR2).

[4] = Acute toxicity after intraperitoneal injection in mice; assay type: in vivo, mice (B6/SJL); conditions: 1-50 μg rX-DING-CD4^pep or 50 μg nX-DING-CD4, 7 days
Method: In the animal tests, eight-week old wild-type mice (B6/SJL) with both genders in each test group were injected intraperitoneally with 1-50 μg of rX-DING-CD4^pep or 50 μg nX-DING-CD4. The nX-DING-CD4 refers to the native form of X-DING-CD4 protein that was purified through IXC chromatography from the extracellular compartment of HIV-1 resistant T-cells. The rX-DING-CD4^pep refers to therapeutic X-DING-CD4 peptide that was expressed in E. coli and purified through Ni-affinity column. Toxicity was assessed by obvious symptoms including diarrhea, ruffled fur, abnormal gait, or loss of more than 10% weight. Animals were weighted before injection and then observed every hour for the first 10 hours after injection; then animals were weighted on 1, 3, 4 and 7 days after X-DING-CD4 administration. […] In its highest administered dose (50 μg—corresponding to 2 μg/G) we exceeded therapeutic dose blocking 95% of HIV promoter activity (by RSA assays) and 90% virus replication (by MAGI assays) (See FIGS. 2 & 3 in Example 2).

Molecule	IC50 (HIV-1 LTR promoter; RSA) [nM]	IC50, HIV-1 LTR promoter inhibition, mass concentration (HIV-1 LTR promoter; RSA)	further results
C=C1[C@@H](C)[C@H]2[C@H](Cc3ccccc3)NC(=O)[C@]23[C@H](OC(C)=O)/C=C/[C@@](C)(O)C(=O)[C@@H](C)C/C=C/[C@H]3[C@@H]1O [CCD, cytochalasin D]			effect of uptake inhibitor on sX-DING-CD4 inhibition of LTR transcription [1]: still demonstrated inhibitory effects of sX-DING-CD4 on LTR transcription
CN(C)CCCN1c2ccccc2Sc2ccc(Cl)cc21 [CPZ, Chromopromazine]			effect of uptake inhibitor on sX-DING-CD4 inhibition of LTR transcription [1]: still demonstrated inhibitory effects of sX-DING-CD4 on LTR transcription
CCN(CC)CCCC(C)Nc1ccnc2cc(Cl)ccc12 (stereo not shown) [CQ, chloroquine]			effect of uptake inhibitor on sX-DING-CD4 inhibition of LTR transcription [1]: still demonstrated inhibitory effects of sX-DING-CD4 on LTR transcription
CN(C)c1nc(N)c(C(=O)N=C(N)N)nc1Cl [DMA, dimethyl amiloride]			effect of uptake inhibitor on sX-DING-CD4 inhibition of LTR transcription [1]: abolished the inhibitory effect of sX-DING-CD4 on LTR transcription
DINGGGATLPQK [XD-1]	51.2	(60 ng/ml)	
DINGGQTLPQK [XD-4M]	57	(66.9 ng/ml)	
GTKNVHWACVSKLTSTELSTY [XD-7]	29.8	(69.3 ng/ml)	
GTKNVHWAGSDSKLTSTELSTYC [XD-5]	35.8	(88.7 ng/ml)	
GVSNKNVHWAGSDSKLTAT [XD-14]	36.8	(72.5 ng/ml)	
GVSNKNVHWAGSDSKLTATE(OMe)LSTY [XD-12]	33.7	(86.2 ng/ml)	
GVSNKNVHWAGSDSKLTATLLSTY [XD-15]	36.7	(93.5 ng/ml)	
GVSNKNVHWAGSDSKLTATQLSTY [XD-13]	30.2	(77.5 ng/ml)	
KNVHWAGSDSKLTSTELSTY [XD-4]	31	(70 ng/ml)	
LLSTY [XD-15sh]	157	(93.5 ng/ml)	
QLSTY [XD-13sh]	121	(74 ng/ml)	
YTSLE [XD-12sh, YTSLE(OMe)]	121	(74 ng/ml)	
B1			IC50, HIV-1 replication (MAGI) (NL4-3 HIV-1 isolate [2]): 0.075 µg/mL; IC50 RSA (HIV-1 LTR promoter; DING family proteins): 0.052 µg/mL; HIV-1 LTR IC50 (HIV-1 LTR promoter; RSA, DING family proteins, FIG. 16A): 0.052 µg/mL; reduction of HIV-1 replication (p24) (NL4-3 HIV-1 isolate [3]): about 11 fold; expression of X-DING-CD4 mRNA (X-DING-CD4 mRNA): induced expression of X-DING-CD4 mRNA; obvious symptoms of toxicity (diarrhea, ruffled fur, abnormal gait) [4]: Neither of rX-DING-CD4^pep treatment nor nX-DING-CD4 treatment caused any obvious symptoms
